These results are taken from patent publication US11236120B2, “Azithromycin derivatives with epithelial barrier enhancement properties” (EpiEndo Pharmaceuticals ehf, priority 2015, dated 2022).

Series [1] has as its system Streptococcus pneumoniae (ATCC49619). Description: Assay 1: antimicrobial broth dilution on microtiter plates, Streptococcus pneumoniae. The format is cell-based. Conditions: Str. The procedure:
(§1) The antimicrobial activity of each Example compound was investigated. The Minimal Inhibitory Concentration (MIC—the minimal dose required to inhibit bacterial growth) and the Minimal Bactericidal Concentration (MBC—the minimal dose required to kill bacteria) were measured for each compound for Streptococcus pneumoniae (ATCC49619), Staphylococcus aureus (ATCC29213), Bacillus megaterium (BM-11) and Escherichia coli (D-21) using an antimicrobial broth dilution method on microtiter plates. The Minimal Inhibitory Concentration (MIC) was also measured for each example compound and azithromycin with Mycobacterium avium complex (MAC). […]
(§2) The Minimal Inhibitory Concentration (MIC—the minimal dose required to inhibit bacterial growth) and the Minimal Bactericidal Concentration (MBC—the minimal dose required to kill bacteria) were measured for each compound for Streptococcus pneumoniae (ATCC49619), Staphylococcus aureus (ATCC29213), Bacillus megaterium (BM-11) and Escherichia coli (D-21) using an antimicrobial broth dilution method on 96 well microtiter plates. […]
(§3) After addition of the bacterial solution, the plates were incubated at 35° C. for 18 h. The bacterial growth of each well was then recorded and then the Minimal Inhibitory Concentration (MIC) and Minimal Bactericidal Concentration ([…]) were determined.

In series [2] the test system is Bacillus megaterium (BM-11). As to the kind of experiment: Assay 1: antimicrobial broth dilution on microtiter plates, Bacillus megaterium. Conditions: Priestia megaterium. Format: cell-based. The procedure: as §1, §2, §3
The test system of series [3] is Escherichia coli (D-21). As to the kind of experiment: Assay 1: antimicrobial broth dilution on microtiter plates, Escherichia coli. Format: cell-based. The following applies: E. coli (D-21). The procedure: The antimicrobial activity of each Example compound was investigated. The Minimal Inhibitory Concentration (MIC—the minimal dose required to inhibit bacterial growth) and the Minimal Bactericidal Concentration (MBC—the minimal dose required to kill bacteria) were measured for each compound for Streptococcus pneumoniae (ATCC49619), Staphylococcus aureus (ATCC29213), Bacillus megaterium (BM-11) and Escherichia coli (D-21) using an antimicrobial broth dilution method on microtiter plates. The Minimal Inhibitory Concentration (MIC) was also measured for each example compound and azithromycin with Mycobacterium avium complex (MAC). Mycobacterium avium complex (MAC) is a term that covers both M. avium and M. intracellulare.
The antibacterial activities of example compounds 1 to 31 and azithromycin were investigated. The Minimal Inhibitory Concentration (MIC—the minimal dose required to inhibit bacterial growth) and the Minimal Bactericidal Concentration (MBC—the minimal dose required to kill bacteria) were measured for each compound for Streptococcus pneumoniae (ATCC49619), Staphylococcus aureus (ATCC29213), Bacillus megaterium (BM-11) and Escherichia coli (D-21) using an antimicrobial broth dilution method on 96 well microtiter plates.
A 256 μg/ml stock solution of each compound was prepared in Mueller-Hinton Broth and then further diluted by a 2-fold serial dilution. […]
On the technique in general: Broth dilution looks for growth in wells or tubes with falling amounts of substance.

Series [4] deals with Mycobacterium avium. Description: Assay 2: STC colorimetric microplate assay, M. avium. The format is cell-based.
Series [5] deals with Mycobacterium intracellulare. As to the kind of experiment: Assay 2: STC colorimetric microplate assay, M. intracellulare. The format is cell-based.
The nature of series [6]: Solubility in 10 mM phosphate buffer (pH 7.4). The format is physicochemical. The following applies: pH 7.4, aqueous buffer, kinetic from dmso stock, 60 minutes at room temperature, filtered, read-out: MTS Solubility in Buffer (pH 7.4). As for the experimental part: Solubility in 10 mM Phosphate Buffer (pH 7.4)
The solubility sample testing of the compounds was performed by in phosphate buffer at pH 7.4 and using HPLC-MS detection. A stock solution of […] in DMSO was prepared for each compound. For the solubility test sample, 100 μL of the stock solution was diluted with 3.9 mL of a 10 mM phosphate buffer at […] to a final concentration of […]. The buffer solution was left to stand for 60 minutes at room temperature and then filtered. The filtrate was analyzed against two calibration points of the same analyte prepared at […] using HPLC-MS. These calibration points were prepared from the same stock solution as the solubility sample by diluting it with DMSO:H2O (1:1) 1:40 and then again 1:10. The chromatographic signal area of the analyte in the solubility sample was then compared to the chromatographic signal area of the two calibration samples.
The chromatographic separation was performed on a Waters HPLC-MS system using a 50×2.1 mm×Bridge C18 column and a gradient elution of Water with 0.1% formic acid and acetonitrile with 0.1% formic acid. The analytes were analyzed in positive electro-spray mode using the (M+H)^+ in single ion recording.

Series [7] deals with patients with COPD. The following applies: double blinded clinical trials; cited from earlier work.

Structures are written as SMILES. Values after ≈ are worked out from the molar mass of the structure shown.

One may read the MBC as the smallest concentration meeting the test's criterion for killing. Lower therefore signals more potent killing. The term MIC denotes the least concentration at which growth counts as inhibited. Read a high MIC as a less susceptible organism. In general, solubility refers to how much of the substance goes into solution per volume.

Regarding `CC[C@H]1OC(=O)[C@H](C)[C@@H](O[C@H]2C[C@@](C)(OC)[C@@H](O)[C@H](C)O2)[C@H](C)[C@@H](O[C@@H]2O[C@H](C)C[C@H](N(C)C)[C@H]2O)[C@](C)(O)C[C@@H](C)CN(C)[C@H](C)[C@@H](O)[C@]1(C)O` [Azithromycin, (2R,3S,4R,5R,8R,10R,11R,12S,13S,14R)-11-[(2S,3R,4S,6R)-4-(dimethylamino)-3-hydroxy-6-methyl-tetrahydropyran-2-yl]oxy-2-ethyl-3,4,10-trihydroxy-13-[(2R,4R,5S,6S)-5-hydroxy-4-methoxy-4,6-dimethyl-tetrahydropyran-2-yl]oxy-3,5,6,8,10,12,14-heptamethyl-1-oxa-6-azacyclopentadecan-15-one], the MBC in series [1] was found to be 0.06 µg/mL (≈ 0.0801 µM); in series [2], 2 µg/mL (≈ 2.67 µM); in series [3] it was 32 µg/mL (≈ 42.7 µM). Besides, the MIC in series [1] was determined as 0.06 µg/mL (≈ 0.0801 µM); in series [2], 1 µg/mL (≈ 1.34 µM); in series [3], 4 µg/mL (≈ 5.34 µM); in series [4] (Mycobacterium avium S1002170205), 16 µg/mL (≈ 21.4 µM); in series [4] (Mycobacterium avium S1003050114), 32 µg/mL (≈ 42.7 µM); in series [5] (Mycobacterium intracellulare S1005200118), 32 µg/mL (≈ 42.7 µM). Besides, the MIC in series [5] (Mycobacterium intracellulare S1305150028) was 4 µg/mL (≈ 5.34 µM). The solubility at 60 min in series [6] amounted to 0.26 µM (≈ 0.195 µg/mL). The “reduction of the hospitalisation rate and disease related exacerbations” value in series [7] is given as 30%.
